Experimental data as given in patent publication US20170291890A1 (Epizyme, Inc., priority 2014, published 2017).

Columns and labels:
[1] = Solubility remark in Table 2 (compound insoluble, no IC50 given); type: physicochemical; conditions: Table 2, cell in place of 4A/4C/5A IC50
KDM4C = target: T1, KDM4C (Homo sapiens, UniProt Q9H3R0); assay: KDM4C Assay (SAMDI mass spectrometry demethylase assay); type: biochemical; conditions: N-terminal GST-tagged KDM4C 2-372; class symbols; read-out: 4C IC50
T1 construct: N-terminal GST-tagged KDM4C^2-372 was purchased from BPS Biosciences; GST (N); purchased BPS Biosciences
T1 sequence (Q9H3R0 2-372): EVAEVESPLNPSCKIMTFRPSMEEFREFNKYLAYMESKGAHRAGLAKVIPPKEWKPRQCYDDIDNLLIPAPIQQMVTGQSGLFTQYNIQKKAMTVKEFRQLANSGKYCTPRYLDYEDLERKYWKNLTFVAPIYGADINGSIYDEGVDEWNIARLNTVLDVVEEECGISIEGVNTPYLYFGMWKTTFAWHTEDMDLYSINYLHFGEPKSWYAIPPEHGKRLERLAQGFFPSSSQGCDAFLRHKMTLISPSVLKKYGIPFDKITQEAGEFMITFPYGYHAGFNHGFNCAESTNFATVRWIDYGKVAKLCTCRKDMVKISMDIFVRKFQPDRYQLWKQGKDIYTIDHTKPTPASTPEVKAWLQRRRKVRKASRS
Experimental: (§1) N-terminal GST-tagged KDM4C^2-372 was purchased from BPS Biosciences. Peptides were synthesized by BioPeptide and all other reagents were purchased from Sigma-Aldrich at the highest level of purity possible. Assays were performed in a 50 μL volume in 384-well V-bottom polypropylene microplates (Greiner) at 25° C. Optimized 1× assay buffer was 50 mM HEPES (pH=8.0), 100 μM sodium ascorbate, 20 mM NaCl, 10 μM ammonium iron sulfate, 1 mM tris(2-carboxyethyl)phosphine (TCEP), 0.002% Tween-20, and 0.005% BSG. For compound screening, 35 μL of KDM4C^2-372 (final concentration, f.c.=5 nM) was added using a Multidrop Combi and preincubated with 1 μL of test compound (f.c.=10 μM) for 30 minutes and subsequently 15 μL of peptide with the following sequence NH2-ARTKQTAR(Kme3)STGGKAPRKQLA(K-Ahx-Biotin)-amide (f.c.=500 nM) and 2-oxoglutarate (f.c.=15 μM) was added by Multidrop Combi to begin the reaction. Reactions proceeded for 150 minutes and were stopped by the addition of 5 μL of formic acid (f.c.=0.5%) using a Multidrop Combi and then analyzed by SAMDI Tech Inc.
(§2) SAMDI Tech analyzed all reactions using self-assembled monoloayer desorption/ionization technology as previously described (Gerard-Levin Z A, Scholle M D, Eisenberg A H, et al.: High-throughput screening of small molecule libraries using SAMDI mass spectrometry. ACS Comb Sci 2011; 13:347-350). Briefly, a 2 μL sample of the stopped demethylase reactions were transferred to a SAMDI array coated with 384 biotin-neutravidin spots using a 384-channel pipet station. The SAMDI arrays were incubated for 1 h in a humidified chamber, followed by washing of the surface with deionized ultra-filtered water (DIUF) and drying under nitrogen. A matrix of 30 mg/ml 2′,4′,6′-Trihydroxyacetophenone monohydrate (THAP) in acetone was applied using a TPP Mosquito 1.2 μL tip by dispensing 50 nL on each of the 384 spots on the array. SAMDI-MS was run using acquisition method ReflectorPositiveUTX. The % conversion of substrate to product was calculated using the AUC of the substrate and product peptide peaks.
(§3) An IC50 value was determined by contacting various concentrations of a test compound with one of the KDM4A, KDM4C or KDMSC enzyme constructs and plotting a dose-response curve which associates the amount of inhibition of the enzyme relative to the concentration of the test compound. From the curve, the IC50 value (which represents the concentration of the test compound necessary to inhibit maximal enzymatic activity by 50%) was determined. Additionally, the slope of the linear range of the plotted curve, which indicates the speed with which the curve rises between the minimum and maximum, was calculated.

KDM5A = target: T2, KDM5A (Homo sapiens, UniProt P29375); assay: KDM5A Assay (SAMDI mass spectrometry demethylase assay); type: biochemical; conditions: C-terminal FLAG-tagged KDM5A 1-1090; class symbols; read-out: 5A IC50
T2 construct: C-terminal FLAG-tagged KDM5A^1-1090 was purchased from BPS Biosciences; FLAG (C); purchased BPS Biosciences
T2 sequence (P29375 1-1090): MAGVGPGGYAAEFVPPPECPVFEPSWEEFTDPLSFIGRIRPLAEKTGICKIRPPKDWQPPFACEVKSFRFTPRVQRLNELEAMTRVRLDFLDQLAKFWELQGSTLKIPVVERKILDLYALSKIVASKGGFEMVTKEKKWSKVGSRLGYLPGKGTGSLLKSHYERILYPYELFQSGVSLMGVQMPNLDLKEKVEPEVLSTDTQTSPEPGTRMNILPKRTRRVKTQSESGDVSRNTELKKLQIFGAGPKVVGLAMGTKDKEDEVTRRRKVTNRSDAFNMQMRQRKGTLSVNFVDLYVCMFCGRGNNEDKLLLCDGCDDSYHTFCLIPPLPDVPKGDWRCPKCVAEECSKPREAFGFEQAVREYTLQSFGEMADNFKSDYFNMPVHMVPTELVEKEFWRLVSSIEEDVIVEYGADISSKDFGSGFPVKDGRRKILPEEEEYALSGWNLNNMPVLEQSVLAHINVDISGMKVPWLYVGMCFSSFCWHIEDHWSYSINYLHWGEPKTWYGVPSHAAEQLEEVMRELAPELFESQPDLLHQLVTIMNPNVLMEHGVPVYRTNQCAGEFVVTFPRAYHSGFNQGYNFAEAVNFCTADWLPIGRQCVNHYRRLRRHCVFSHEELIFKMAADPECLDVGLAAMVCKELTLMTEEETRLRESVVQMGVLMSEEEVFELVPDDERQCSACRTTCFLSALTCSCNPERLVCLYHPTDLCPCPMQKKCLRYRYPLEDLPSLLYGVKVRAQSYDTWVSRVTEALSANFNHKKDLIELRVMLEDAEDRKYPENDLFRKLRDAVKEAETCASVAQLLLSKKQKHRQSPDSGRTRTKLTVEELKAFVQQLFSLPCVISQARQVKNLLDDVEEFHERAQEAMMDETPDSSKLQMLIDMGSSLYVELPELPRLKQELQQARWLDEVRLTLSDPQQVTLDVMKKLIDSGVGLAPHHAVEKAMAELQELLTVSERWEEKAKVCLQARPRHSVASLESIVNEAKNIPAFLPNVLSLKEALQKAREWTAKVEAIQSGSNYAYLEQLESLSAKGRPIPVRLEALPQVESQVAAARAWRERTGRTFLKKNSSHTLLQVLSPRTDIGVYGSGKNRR
Experimental: as §1, with “C-terminal FLAG-tagged KDM5A^1-1090” for “N-terminal GST-tagged KDM4C^2-372”, “[…]” for “KDM4C^2-372”, “f.c.=20” for “f.c.=5”, “NH2-ART[Kme-3]QTARKSTGGKA[K-Ahx-Biot]-amide (f.c.=250” for “NH2-ARTKQTAR(Kme3)STGGKAPRKQLA(K-Ahx-Biotin)-amide (f.c.=500”
as §2, §3

| Solubility remark given instead of IC50 values [1] | IC50 (KDM4C) [nM] | IC50 (KDM5A) [nM] | Compound |
| --- | --- | --- | --- |
|  | 100 to 1000 | 1 to 100 | Cc1cn(C2CCCNC2)nc1Nc1cnccc1C(=O)O (stereo not shown) [Compound 141, 3-(4-methyl-1-(piperidin-3-yl)-1H-pyrazol-3-ylamino) isonicotinic acid] |
|  | 100 to 1000 | 1000 to 10000 | Cc1c(Nc2cnccc2C(=O)O)cnn1C1CCCN(C2CCC2)CC1 (single isomer, unassigned) [Compound 117] |

The remaining lines, values behind:

| Compound | Solubility remark given instead of IC50 values [1] | IC50 (KDM4C) [nM] | IC50 (KDM5A) [nM] |
| --- | --- | --- | --- |
| Cn1nc(-c2ccncc2)cc1Nc1cnccc1C(=O)O [Compound 44, 3-((1-methyl-3-(pyridin-4-yl)-1H-pyrazol-5-yl)amino) isonicotinic acid] | Insoluble |  |  |
| Cc1c(Nc2cnccc2C(=O)O)nn(C)c1-c1ccccc1 [Compound 54, 3-((1,4-dimethyl-5-phenyl-1H-pyrazol-3-yl)amino)isonicotinic acid] | Insoluble |  |  |
| Cc1ccccc1-n1ncc(Nc2cnccc2C(=O)O)c1C [Compound 50, 3-((5-methyl-1-(o-tolyl)-1H-pyrazol-4-yl)amino)isonicotinic acid] | Insoluble |  |  |
